Results taken from patent US20090017139A1, “Iodine therapy dosing for treating medical conditions” (priority 2007, published 2009).

Columns and labels:
[1] = test system: euthyroid mastalgia patients; experiment: Example 1: multi-center, randomized, double-blind, placebo-controlled 6 month mastalgia study; type: in vivo, human; conditions: for change in the Lewin Overall pain scale: 6.0 mg/d
Experimental: A multi-center, randomized, double-blind, placebo-controlled study dosed patients for 6 months with 0.0, 1.5, 3.0 and 6.0 mg I2 daily. Healthy euthyroid mastalgia patients between the ages of 18 and 50 who were unresponsive to conservative treatments like OTC analgesics were eligible for the study. Subjects needed to identify a history of at least six months of moderate or severe breast pain and document at least 6 days per cycle of moderate or severe pain in a daily dairy (FIG. 1 below).

[2] = test system: iodine naive women; experiment: Example 3: I2 safety study, treatment emergent thyroid status in iodine naive women; type: in vivo, human; conditions: for Hyperthyroidism Overt ↓TSH ↑T4 / Hyperthyroidism Sub-clinical ↓TSH / Hypothyroidism Overt ↑TSH (5-10) ↓T4 / Hypothyroidism Overt ↑TSH (10-20) ↓T4 / Hypothyroidism Overt ↑TSH (>20) ↓T4 / Hypothyroidism Sub-clinical ↑TSH (5-10) / Hypothyroidism Sub-clinical ↑TSH (10-20) / Hypothyroidism Sub-clinical ↑TSH (>20): iodine naive, patients (percent of dose group)
Experimental: A second I2 safety study was conducted in women not previously exposed to iodine therapy (iodine naïve). […] Thyroid functions laboratory values were available for 365 patients. The age of the female participants ranged from 20 to 55; the average age was 42.4 years. Variations in treatment emergent thyroid status were evaluated based on TSH and T4 values (see Table 2). […] Patients were categorized sub-clinical hypothyroid if TSH was elevated and T4 values were normal; patients with depressed T4 values were considered overtly hypothyroid.
Sub-clinical hyperthyroidism is not correlated to an increased rate of either overt hyperthyroidism or overt hypothyroidism. On the other hand, it is well established that sub-clinical hypothyroidism is a risk factor for overt hypothyroidism. In fact, as stated in Example 2, antibodies to thyroid peroxidase combined with sub-clinical hypothyroidism are established risk factors for overt thyroid disease in women between the age of 30 and 50. Therefore the key question is whether or not dose is related to the frequency of sub-clinical hypothyroidism. Kendall's rank correlation was used to evaluate the relationship between dose and frequency of sub-clinical hypothyroidism.

[3] = test system: patient with follicular cyst of the ovary; experiment: Example 4: I2 therapy of a patient with ovarian follicular cysts; type: in vivo, human
Experimental: The post surgical diagnosis was ruptured follicular cyst of the right ovary. After the surgical procedure the patient continued to experience lower right quadrant abdominal pain. […] The patient was started on I2 therapy at a dose of 6.0 mg/d. The patient was seen again 3 months later (December 3 to March 16). After three months of I2 therapy the patient was free of pain which their […] regarded as unique.
The patient subsequently stopped I2 therapy and approximately 3 years later symptoms of abdominal and breast pain were present. The patient was started again on daily I2 therapy at a dose of 6.0 mg/d. An ultrasound was performed and small follicular cysts in each ovary was noted. […] The patient was continued on daily iodine therapy at a concentration of 3.0 mg/d.

[4] = Example 5: daily feed consumption and weight during 2 months of daily dosing; type: in vivo, Sprague-Dawley rats; conditions: 2 months daily dosing, .06 to 2 mg I2/kg/day
Excerpt: A total of 24 nulliparous and nonpregnant female Sprague-Dawley rats were received from Charles River Laboratories, Kingston, N.Y. The animals were 10 weeks of age and were examined for signs of disease or injury upon receipt. The animals were housed in stainless steel cages and fed LabDiet™ Certified Rodent Chow 5002 (PMI Feeds, Inc., a subsidiary of Purina Mills, Inc.) ad libitum and were provided fresh filtered tap water ad libitum. Environmental controls were set to maintain a temperature of 18 to 26° C. and a relative humidity of 30 to 70%. A 12-hour light/dark cycle was employed and the room underwent a minimum of ten fresh air changes/hour.
The animals were allowed to acclimate to laboratory conditions for 2 weeks. No abnormal findings excluding animals from study were noted. The animals were released from conditioning following an examination. Each animal was identified with a unique number that was indicated by ear punch. Cage labels, color-coded by group, identified each cage. The animals were maintained at laboratory conditions for an additional 2 weeks and then randomized into treatment groups by weight.
Tablets of IoGen, a registered trademark of Symbollon Pharmaceuticals Inc. of Framingham Mass. USA were dissolved in distilled water. […]

[5] = in drinking water, 100 days; cited from earlier work
[6] = reacts with water at neutral pH; cited from earlier work

## II [I2, molecular iodine]
[1]; month 3
  change in the Lewin Overall pain scale: 45.4%
[1]; month 6
  change in the Lewin Overall pain scale: 45.0%
[1]; 1.5, 3.0, 6.0 mg daily, month 3 and month 6 (p<0.01)
  magnitude of pain reduction versus dose: increased with dose
[1]; first 3 months of treatment
  difference among dosing groups in adverse events or thyroid related clinical chemistry tests: did not find any difference
[2]; I2 2.0 mg/d
  Hyperthyroidism Overt ↓TSH ↑T4: 0 (0.0)
  Hyperthyroidism Sub-clinical ↓TSH: 2 (3.4)
  Hypothyroidism Overt ↑TSH (5-10) ↓T4: 1 (1.7)
  Hypothyroidism Overt ↑TSH (10-20) ↓T4: 0 (0.0)
  Hypothyroidism Overt ↑TSH (>20) ↓T4: 0 (0.0)
  Hypothyroidism Sub-clinical ↑TSH (5-10): 3 (5.2)
  Hypothyroidism Sub-clinical ↑TSH (10-20): 2 (3.4)
  Hypothyroidism Sub-clinical ↑TSH (>20): 0 (0.0)
[2]; I2 3.0 mg/d
  Hyperthyroidism Overt ↓TSH ↑T4: 2 (3.2)
  Hyperthyroidism Sub-clinical ↓TSH: 0 (0.0)
  Hypothyroidism Overt ↑TSH (5-10) ↓T4: 0 (0.0)
  Hypothyroidism Overt ↑TSH (10-20) ↓T4: 0 (0.0)
  Hypothyroidism Overt ↑TSH (>20) ↓T4: 0 (0.0)
  Hypothyroidism Sub-clinical ↑TSH (5-10): 5 (8.1)
  Hypothyroidism Sub-clinical ↑TSH (10-20): 0 (0.0)
  Hypothyroidism Sub-clinical ↑TSH (>20): 0 (0.0)
[2]; I2 6.0 mg/d
  Hyperthyroidism Overt ↓TSH ↑T4: 0 (0.0)
  Hyperthyroidism Sub-clinical ↓TSH: 2 (3.3)
  Hypothyroidism Overt ↑TSH (5-10) ↓T4: 0 (0.0)
  Hypothyroidism Overt ↑TSH (10-20) ↓T4: 0 (0.0)
  Hypothyroidism Overt ↑TSH (>20) ↓T4: 1 (1.7)
  Hypothyroidism Sub-clinical ↑TSH (5-10): 6 (10)
  Hypothyroidism Sub-clinical ↑TSH (10-20): 0 (0.0)
  Hypothyroidism Sub-clinical ↑TSH (>20): 0 (0.0)
[2]; I2 9.0 mg/d
  Hyperthyroidism Overt ↓TSH ↑T4: 2 (3.5)
  Hyperthyroidism Sub-clinical ↓TSH: 2 (3.5)
  Hypothyroidism Overt ↑TSH (5-10) ↓T4: 2 (3.5)
  Hypothyroidism Overt ↑TSH (10-20) ↓T4: 0 (0.0)
  Hypothyroidism Overt ↑TSH (>20) ↓T4: 1 (1.8)
  Hypothyroidism Sub-clinical ↑TSH (5-10): 8 (14)
  Hypothyroidism Sub-clinical ↑TSH (10-20): 0 (0.0)
  Hypothyroidism Sub-clinical ↑TSH (>20): 0 (0.0)
[2]; I2 .03 mg/d
  Hyperthyroidism Overt ↓TSH ↑T4: 0 (0.0)
  Hyperthyroidism Sub-clinical ↓TSH: 1 (1.5)
  Hypothyroidism Overt ↑TSH (5-10) ↓T4: 0 (0.0)
  Hypothyroidism Overt ↑TSH (10-20) ↓T4: 0 (0.0)
  Hypothyroidism Overt ↑TSH (>20) ↓T4: 0 (0.0)
  Hypothyroidism Sub-clinical ↑TSH (5-10): 3 (4.6)
  Hypothyroidism Sub-clinical ↑TSH (10-20): 0 (0.0)
  Hypothyroidism Sub-clinical ↑TSH (>20): 0 (0.0)
[2]; Kendall's rank correlation p 0.0167, Cuzik's trend test p less than 0.01
  relationship between daily dose and frequency of sub-clinical hypothyroidism: correlated to the frequency of sub-clinical hypothyroidism
[2]; iodine naive patients
  Overt hypothyroidism, patients (second statement, compared to prevalence of overt hyperthyroidism): 1.6%
[2]; iodine naive patients, Fisher's exact test
  incidence of abnormal thyroid function, placebo versus treatment groups: did not differ
[2]; iodine naive patients, first statement
  Overt hypothyroidism, patients: 1.3%
[3]; 3.0 mg/d, seen 9 and 18 months later
  symptoms on continued therapy: remained asymptomatic
[3]; 6.0 mg/d, after three months of therapy
  abdominal pain: free of pain
[3]; 6.0 mg/d, approximately 4 months later
  ultrasound of the ovaries: ovaries appeared normal
[3]; 6.0 mg/d, within a month of reinitiating therapy
  symptoms of pain: no longer present
[4]
  daily feed consumption or weight, placebo versus treated groups: no statistically significant differences
[5]
  suppressing thyroid uptake of a challenge dose of 125iodide: less effective than iodide
[6]
  maximum period of storage in an aqueous environment: 2 to 8 h
